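In this assay, cells in 96-well plates receive the compound at five concentrations for 48 hours. Endpoints are linearly interpolated between the surrounding concentrations. The concentration for 50% growth inhibition is given as GI50. TGI: concentration producing complete growth inhibition.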
Legend:
Assay in all cases: NCI-60 cell line screen, 48 h
ACHN renal = system: ACHN renal
HL-60(TB) leukemia = system: HL-60(TB) leukemia
IGROV1 ovarian = system: IGROV1 ovarian
NCI-H23 lung = system: NCI-H23 lung
NCI-H460 lung = system: NCI-H460 lung
NCI-H522 lung = system: NCI-H522 lung
OVCAR-4 ovarian = system: OVCAR-4 ovarian
SF-539 CNS = system: SF-539 CNS
SK-MEL-28 melanoma = system: SK-MEL-28 melanoma
SR leukemia = system: SR leukemia

## C/C(=N\NC(=O)c1ccccc1O)c1c(O)cc(C)oc1=O
ACHN renal
  TGI: > 100 µM
HL-60(TB) leukemia
  TGI: > 100 µM
IGROV1 ovarian
  TGI: > 100 µM
NCI-H23 lung
  TGI: > 100 µM
NCI-H460 lung
  TGI: > 100 µM
NCI-H522 lung
  TGI: > 100 µM
OVCAR-4 ovarian
  TGI: > 100 µM
SF-539 CNS
  TGI: > 100 µM
SK-MEL-28 melanoma
  TGI: > 100 µM

## CC(=O)CCc1ccc(Oc2c3ccccc3nc3occc23)cc1
ACHN renal
  GI50: 19.1 µM
  TGI: 49.6 µM
HL-60(TB) leukemia
  GI50: 8.67 µM
  TGI: 74.5 µM
IGROV1 ovarian
  GI50: 33.9 µM
  TGI: > 100 µM
NCI-H23 lung
  GI50: 13 µM
  TGI: 39.3 µM
NCI-H460 lung
  GI50: 15.6 µM
  TGI: 31.9 µM
NCI-H522 lung
  GI50: 26.9 µM
  TGI: > 100 µM
OVCAR-4 ovarian
  GI50: 37.6 µM
  TGI: > 100 µM
SK-MEL-28 melanoma
  GI50: 22.9 µM
  TGI: 46.7 µM
SR leukemia
  GI50: 19.7 µM
  TGI: 57.3 µM

## Cn1c(=O)nc2n(-c3ccc(F)c(F)c3)c3ccccc3nc-2c1=O
ACHN renal
  TGI: 37.2 µM
HL-60(TB) leukemia
  TGI: 34.9 µM
IGROV1 ovarian
  TGI: 41.4 µM
NCI-H23 lung
  TGI: 29.9 µM
NCI-H460 lung
  TGI: 35.5 µM
NCI-H522 lung
  TGI: 25.8 µM
OVCAR-4 ovarian
  TGI: 21.1 µM
SF-539 CNS
  TGI: > 100 µM

## CON1C(=O)C2(CCCCC2)C(=O)C12C=CC(C)CC2 (stereo not drawn)
HL-60(TB) leukemia
  TGI: > 100 µM
IGROV1 ovarian
  TGI: > 100 µM
NCI-H23 lung
  TGI: > 100 µM
NCI-H460 lung
  TGI: > 100 µM
NCI-H522 lung
  TGI: > 100 µM
SF-539 CNS
  TGI: > 100 µM
SK-MEL-28 melanoma
  TGI: > 100 µM

## COC(=O)CCCCCOS(=O)(=O)c1ccc(C)cc1
ACHN renal
  TGI: > 100 µM
HL-60(TB) leukemia
  TGI: > 100 µM
IGROV1 ovarian
  TGI: > 100 µM
NCI-H23 lung
  TGI: > 100 µM
NCI-H460 lung
  TGI: > 100 µM
NCI-H522 lung
  TGI: > 100 µM
SF-539 CNS
  TGI: > 100 µM
SK-MEL-28 melanoma
  TGI: > 100 µM
SR leukemia
  TGI: > 100 µM

## Cc1cccc2c(=O)c3c(sc12)c(NCCCN)nc1ccccc13
ACHN renal
  GI50: 1.39 µM
  TGI: 2.71 µM
HL-60(TB) leukemia
  GI50: 1.71 µM
  TGI: 3.34 µM
IGROV1 ovarian
  GI50: 1.18 µM
  TGI: 2.63 µM
NCI-H23 lung
  GI50: 1.76 µM
  TGI: 3.5 µM
NCI-H460 lung
  GI50: 0.825 µM
  TGI: 2.25 µM
NCI-H522 lung
  GI50: 1.57 µM
  TGI: 3.34 µM
OVCAR-4 ovarian
  GI50: 1.58 µM
  TGI: 3.25 µM
SF-539 CNS
  GI50: 1.69 µM
  TGI: 3.09 µM
SK-MEL-28 melanoma
  GI50: 1.89 µM
  TGI: 3.41 µM

## COc1cccc(C2SC(C)C(=O)N2NC(=O)C(O)c2ccccc2)c1 (stereo not drawn)
ACHN renal
  GI50: > 100 µM
  TGI: > 100 µM
IGROV1 ovarian
  GI50: > 100 µM
  TGI: > 100 µM
NCI-H23 lung
  GI50: > 100 µM
  TGI: > 100 µM
NCI-H460 lung
  GI50: > 100 µM
  TGI: > 100 µM
NCI-H522 lung
  GI50: > 100 µM
  TGI: > 100 µM
OVCAR-4 ovarian
  GI50: 41.7 µM
  TGI: > 100 µM
SF-539 CNS
  GI50: > 100 µM
  TGI: > 100 µM
SK-MEL-28 melanoma
  GI50: > 100 µM
  TGI: > 100 µM

## C/C(COc1ccc2oc(-c3ccccc3)cc(=O)c2c1)=N\O
ACHN renal
  GI50: > 100 µM
  TGI: > 100 µM
HL-60(TB) leukemia
  GI50: 74.5 µM
  TGI: > 100 µM
IGROV1 ovarian
  GI50: 43.8 µM
  TGI: > 100 µM
NCI-H23 lung
  GI50: 88.5 µM
  TGI: > 100 µM
NCI-H460 lung
  GI50: 14.3 µM
  TGI: > 100 µM
NCI-H522 lung
  GI50: > 100 µM
  TGI: > 100 µM
OVCAR-4 ovarian
  GI50: > 100 µM
  TGI: > 100 µM
SF-539 CNS
  GI50: 2.1 µM
  TGI: 5.8 µM
SK-MEL-28 melanoma
  GI50: 23.1 µM
  TGI: > 100 µM

## Oc1ccc(Br)cc1C=NC1CCCCC1
ACHN renal
  TGI: > 100 µM
HL-60(TB) leukemia
  TGI: 44.5 µM
IGROV1 ovarian
  TGI: > 100 µM
NCI-H23 lung
  TGI: > 100 µM
NCI-H460 lung
  TGI: > 100 µM
NCI-H522 lung
  TGI: > 100 µM
OVCAR-4 ovarian
  TGI: > 100 µM
SF-539 CNS
  TGI: > 100 µM
SK-MEL-28 melanoma
  TGI: > 100 µM

## COc1nc(NC2OC(COC(C)=O)C(OC(C)=O)C(OC(C)=O)C2OC(C)=O)c(N=C(C)C(C)=O)c(=O)n1C (stereo not drawn)
ACHN renal
  TGI: > 100 µM
HL-60(TB) leukemia
  TGI: > 100 µM
IGROV1 ovarian
  TGI: > 100 µM
NCI-H23 lung
  TGI: > 100 µM
NCI-H460 lung
  TGI: > 100 µM
OVCAR-4 ovarian
  TGI: > 100 µM
SF-539 CNS
  TGI: > 100 µM

## COc1cc(/C=C2\C[C@H]3[C@@H]4CC=C5C[C@@H](O)CC[C@]5(C)[C@H]4CC[C@]3(C)[C@H]2O)ccc1OCCN1CCCCC1
ACHN renal
  GI50: 0.706 µM
  TGI: 1.37 µM
HL-60(TB) leukemia
  GI50: 1.33 µM
  TGI: 3.18 µM
IGROV1 ovarian
  GI50: 2.35 µM
  TGI: > 26.3 µM
NCI-H23 lung
  GI50: 1.21 µM
  TGI: 3.21 µM
NCI-H460 lung
  GI50: 1.21 µM
  TGI: 3.62 µM
NCI-H522 lung
  GI50: 1.6 µM
  TGI: > 50 µM
SF-539 CNS
  GI50: 1.1 µM
  TGI: 2.1 µM
SK-MEL-28 melanoma
  GI50: 1.06 µM
  TGI: > 50 µM
SR leukemia
  GI50: 1.11 µM
  TGI: > 50 µM

## Nc1ccc(C(=O)CC2(O)C(=O)Nc3ccccc32)cc1 (stereo not drawn)
ACHN renal
  TGI: > 100 µM
HL-60(TB) leukemia
  TGI: > 100 µM
IGROV1 ovarian
  TGI: > 100 µM
NCI-H23 lung
  TGI: > 100 µM
NCI-H460 lung
  TGI: > 100 µM
NCI-H522 lung
  TGI: > 100 µM
OVCAR-4 ovarian
  TGI: > 100 µM
SF-539 CNS
  TGI: > 100 µM
SK-MEL-28 melanoma
  TGI: > 100 µM

## C=CCN=C1NC(=O)C(CC(=O)Nc2cccc(Cl)c2)S1 (stereo not drawn)
ACHN renal
  TGI: > 100 µM
HL-60(TB) leukemia
  TGI: > 100 µM
IGROV1 ovarian
  TGI: > 100 µM
NCI-H23 lung
  TGI: > 100 µM
NCI-H460 lung
  TGI: > 100 µM
NCI-H522 lung
  TGI: > 100 µM
OVCAR-4 ovarian
  TGI: > 100 µM
SF-539 CNS
  TGI: > 100 µM
SK-MEL-28 melanoma
  TGI: > 100 µM

## C=C(C)[C@@H]1C/C=C(/COC(C)=O)CC[C@H]2O[C@@]2(C)CC/C=C(\C)CC1
ACHN renal
  GI50: > 100 µM
  TGI: > 100 µM
IGROV1 ovarian
  GI50: > 100 µM
  TGI: > 100 µM
NCI-H23 lung
  GI50: > 100 µM
  TGI: > 100 µM
NCI-H460 lung
  GI50: > 100 µM
  TGI: > 100 µM
NCI-H522 lung
  GI50: > 100 µM
  TGI: > 100 µM
OVCAR-4 ovarian
  GI50: > 100 µM
  TGI: > 100 µM
SK-MEL-28 melanoma
  GI50: > 100 µM
  TGI: > 100 µM
SR leukemia
  GI50: 34.3 µM
  TGI: 91.5 µM

## Cc1ccccc1SC(/C=C/NNC1=NC(c2ccccc2)C(c2ccccc2)=NN1)c1ccccc1 (stereo not drawn)
ACHN renal
  TGI: 42.8 µM
IGROV1 ovarian
  TGI: 80.2 µM
NCI-H23 lung
  TGI: 50.2 µM
NCI-H460 lung
  TGI: > 100 µM
NCI-H522 lung
  TGI: > 100 µM
OVCAR-4 ovarian
  TGI: 9.16 µM
SF-539 CNS
  TGI: 27.6 µM
SK-MEL-28 melanoma
  TGI: 43 µM

## NCCCNCc1c2ccccc2c(CNCCCN)c2ccccc12
ACHN renal
  TGI: > 100 µM
HL-60(TB) leukemia
  TGI: 39.3 µM
IGROV1 ovarian
  TGI: > 100 µM
NCI-H23 lung
  TGI: 49.7 µM
NCI-H460 lung
  TGI: 32.6 µM
NCI-H522 lung
  TGI: 21 µM
OVCAR-4 ovarian
  TGI: 26.5 µM
SF-539 CNS
  TGI: 28.9 µM

## O=C(N/C(=C\c1cccc([N+](=O)[O-])c1)c1nc2c3c(ccc2[nH]1)C(=O)c1ccccc1C3=O)c1ccccc1
ACHN renal
  TGI: > 100 µM
NCI-H23 lung
  TGI: > 100 µM
NCI-H460 lung
  TGI: > 100 µM
NCI-H522 lung
  TGI: > 100 µM
SF-539 CNS
  TGI: > 100 µM
SK-MEL-28 melanoma
  TGI: 85.8 µM
SR leukemia
  TGI: > 100 µM

## CC(C)(C)OC(=O)NC(Cc1ccccc1)C(=S)N1CCCC1 (stereo not drawn)
ACHN renal
  TGI: > 100 µM
HL-60(TB) leukemia
  TGI: > 100 µM
IGROV1 ovarian
  TGI: > 100 µM
NCI-H23 lung
  TGI: > 100 µM
NCI-H460 lung
  TGI: > 100 µM
NCI-H522 lung
  TGI: 96.9 µM
OVCAR-4 ovarian
  TGI: > 100 µM
SF-539 CNS
  TGI: > 100 µM
SK-MEL-28 melanoma
  TGI: > 100 µM
